Publication PMC10954709, “Structure of an open KATP channel reveals tandem PIP2 binding sites mediating the Kir6.2 and SUR1 regulatory interface” (Nature Communications, 2024)
Several values for one entry are separate records, joined by “and”; a condition that tells them apart may be missing. Equal entries are not always repeated.

Experiments:
KATP channels = tested on: KATP channels; set-up: method as in PMID 12525701; conditions: cited from earlier work
His175 = His175 (UniProt position 175, KTAQAHRRAET); assay: electrophysiology; conditions: cited from earlier work
[1] = target: T1, SUR1^K134A/Kir6.2 channel (UniProt P70673+Q09427, K134A); assay: PIP2 response, inside-out patch-clamp recording, COSm6 cells; assay type: biochemical, rat Kir6.2, hamster SUR1; conditions: 5 μM PIP2; −50 mV; mean (± SEM)
T1 construct: expressed in transfected cells; host or cells: COSm6
T1 sequence (Q09427 whole entry K134A): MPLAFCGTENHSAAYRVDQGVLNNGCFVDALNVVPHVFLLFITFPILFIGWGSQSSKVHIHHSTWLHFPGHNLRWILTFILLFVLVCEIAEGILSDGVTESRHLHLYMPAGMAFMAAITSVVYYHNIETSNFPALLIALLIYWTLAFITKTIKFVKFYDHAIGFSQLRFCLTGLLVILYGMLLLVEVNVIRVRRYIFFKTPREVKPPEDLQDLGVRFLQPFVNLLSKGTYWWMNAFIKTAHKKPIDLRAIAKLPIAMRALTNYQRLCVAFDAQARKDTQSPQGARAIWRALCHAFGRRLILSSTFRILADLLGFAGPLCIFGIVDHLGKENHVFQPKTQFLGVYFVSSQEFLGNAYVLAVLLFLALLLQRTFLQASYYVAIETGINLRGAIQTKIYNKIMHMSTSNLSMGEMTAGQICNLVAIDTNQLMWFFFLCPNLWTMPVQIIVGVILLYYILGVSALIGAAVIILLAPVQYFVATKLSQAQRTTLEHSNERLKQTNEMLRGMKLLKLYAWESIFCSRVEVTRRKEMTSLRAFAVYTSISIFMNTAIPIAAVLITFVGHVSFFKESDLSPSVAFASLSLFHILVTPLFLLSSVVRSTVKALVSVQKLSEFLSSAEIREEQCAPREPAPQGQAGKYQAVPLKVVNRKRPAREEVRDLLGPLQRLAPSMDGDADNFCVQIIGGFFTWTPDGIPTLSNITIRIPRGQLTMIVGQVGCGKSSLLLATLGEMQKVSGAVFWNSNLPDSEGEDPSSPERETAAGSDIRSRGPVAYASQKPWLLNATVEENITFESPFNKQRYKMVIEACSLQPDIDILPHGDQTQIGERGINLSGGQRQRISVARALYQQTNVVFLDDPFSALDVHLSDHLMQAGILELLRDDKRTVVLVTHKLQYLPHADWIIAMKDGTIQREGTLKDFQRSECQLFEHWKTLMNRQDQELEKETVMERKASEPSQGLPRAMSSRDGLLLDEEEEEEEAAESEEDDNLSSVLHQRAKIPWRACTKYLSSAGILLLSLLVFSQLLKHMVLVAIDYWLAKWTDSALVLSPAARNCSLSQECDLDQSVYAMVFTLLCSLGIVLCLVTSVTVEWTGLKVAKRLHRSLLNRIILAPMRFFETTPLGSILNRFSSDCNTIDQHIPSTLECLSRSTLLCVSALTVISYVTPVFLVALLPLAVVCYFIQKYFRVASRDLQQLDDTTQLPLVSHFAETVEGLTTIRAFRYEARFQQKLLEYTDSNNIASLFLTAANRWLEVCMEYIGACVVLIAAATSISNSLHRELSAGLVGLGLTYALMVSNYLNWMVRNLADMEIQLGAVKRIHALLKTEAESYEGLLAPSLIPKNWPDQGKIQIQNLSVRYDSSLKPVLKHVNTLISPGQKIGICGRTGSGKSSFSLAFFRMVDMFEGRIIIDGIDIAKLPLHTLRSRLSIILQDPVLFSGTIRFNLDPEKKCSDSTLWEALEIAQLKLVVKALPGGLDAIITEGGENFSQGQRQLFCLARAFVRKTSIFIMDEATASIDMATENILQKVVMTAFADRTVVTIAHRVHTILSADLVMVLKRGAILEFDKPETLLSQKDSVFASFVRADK
T1 sequence (P70673 whole entry): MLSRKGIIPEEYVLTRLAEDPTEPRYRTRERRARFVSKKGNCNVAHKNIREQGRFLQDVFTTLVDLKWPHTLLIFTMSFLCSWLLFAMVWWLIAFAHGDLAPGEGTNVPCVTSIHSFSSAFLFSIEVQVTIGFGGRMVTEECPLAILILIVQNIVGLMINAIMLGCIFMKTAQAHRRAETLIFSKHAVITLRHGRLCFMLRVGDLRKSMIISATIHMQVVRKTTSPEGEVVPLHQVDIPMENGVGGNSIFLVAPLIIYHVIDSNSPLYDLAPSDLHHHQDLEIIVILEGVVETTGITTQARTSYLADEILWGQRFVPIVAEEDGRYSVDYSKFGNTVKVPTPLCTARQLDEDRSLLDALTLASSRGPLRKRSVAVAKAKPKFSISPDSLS
Description: (§1) Fig. 3 Functional testing of the two PIP2 binding sites. a Representative inside-out patch-clamp recordings (−50mV, inward currents shown as upward deflections; the red dashed line indicates 0 currents) of various channels: WT, SUR1^K134A (the non-canonical PIP2 binding site mutation)/Kir6.2, SUR1/Kir6.2^R176A (the canonical PIP2 binding site mutation), and SUR1^K134A/Kir6.2^R176A double mutant, exposed alternately in 5 μM PIP2, 0.1 mM ATP, and 1 mM ATP as indicated by the bars above the recordings. The brief exposures to 0.1 mM and 1 mM ATP between PIP2 exposures were used to monitor the gradual decrease in ATP sensitivity as channel opening became increasingly stabilized by PIP2. b Group data of recordings shown in (a) comparing initial currents in K-INT at the time of patch excision. For each group, mean ± SEM of the data points are shown (WT, n = 12; SUR1^K134A, n = 6; Kir6.2^R176A, n = 7; SUR1^K134A/Kir6.2^R176A, n = 6 cells). Statistical significance was tested between mutants and WT or between double and single mutants using two-tailed unpaired t test with Welch’s correction, alpha = 0.05. *SUR1^K134A vs WT, p = 0.0468; ** Kir6.2^R176A vs WT, p = 0.0016; **SUR1^K134A/Kir6.2^R176A vs WT, p = 0.0014; ^#SUR1^K134A/Kir6.2^R176A vs SUR1^K134A, p = 0.0440; ^$SUR1^K134A/Kir6.2^R176A vs Kir6.2^R176A, p = 0.0411. Note the y-axis in this panel and panel (c) is in log scale for better visualization. c Comparison of the maximum fold-increase in currents after PIP2 exposure in different channels. For each group, mean ± SEM of the data points are shown (WT, n = 12; SUR1^K134A, n = 6; Kir6.2^R176A, n = 7; SUR1^K134A/Kir6.2^R176A, n = 5 cells). Statistical significance was tested between mutants and WT or between double and single mutants using two-tailed unpaired t test, alpha = 0.05. ***SUR1^K134A vs WT, p < 0.0001; ** Kir6.2^R176A vs WT, p = 0.0029; **SUR1^K134A/Kir6.2^R176A vs WT, p = 0.0012; ^#SUR1^K134A/Kir6.2^R176A vs SUR1^K134A, p = 0.0247; ^$SUR1^K134A/Kir6.2^R176A vs Kir6.2^R176A, p = 0.0353. d Comparison of the time of exposure in PIP2 for currents to reach maximum in different channels. For each group, mean ± SEM of the data points are shown (WT, n = 12; SUR1^K134A, n = 6; Kir6.2^R176A, n = 7; SUR1^K134A/Kir6.2^R176A, n = 6 cells). Statistical significance was tested between mutants and WT or between double and single mutants using two-tailed unpaired t test, alpha = 0.05. ***SUR1^K134A vs WT, p < 0.0001; ***Kir6.2^R176A vs WT, p = 0.0002; ***SUR1^K134A/Kir6.2^R176A vs WT, p < 0.0001; ^##SUR1^K134A/Kir6.2^R176A vs SUR1^K134A, p = 0.0071.
(§2) For electrophysiology experiments, COSm6 cells were co-transfected with various combination of WT or mutant SUR1 and Kir6.2 cDNAs (SUR1 in pECE and Kir6.2 in pCDNA3) along with the cDNA for the Green Fluorescent Protein (to facilitate identification of transfected cells) using FuGENE® 6 (Promega). Mutant SUR1 and Kir6.2 were constructed using QuikChange (mutagenesis primers are shown in Supplementary Table 2). Cells were plated onto glass coverslips 24 h after transfection and recordings made in the following two days. All experiments were performed at room temperature. Micropipettes were pulled from non-heparinized Kimble glass (Fisher Scientific) on a horizontal puller (Sutter Instrument). Electrode resistance was typically 1-2 MΩ when filled with K-INT solution containing 140 mM KCl, 10 mM K-HEPES, 1 mM K-EGTA, 1 mM EDTA, pH 7.3. ATP was added as the potassium salt. Inside-out patches of cells bathed in K-INT were voltage-clamped with an Axopatch 1D amplifier (Axon Instruments). ATP or porcine brain PIP2 (Avanti Polar Lipids; prepared in K-INT and bath sonicated in ice water for 30 min before use) were added to K-INT as specified in the figure legend. All currents were measured at a membrane potential of −50 mV (pipette voltage = +50 mV). Data were analyzed using pCLAMP10 software (Axon Instrument). Off-line analysis was performed using Clampfit and GraphPad. […]

[2] = target: T2, SUR1/Kir6.2^R176A channel (UniProt P70673+Q09427, R176A); assay: as above; assay type: biochemical, rat Kir6.2, hamster SUR1; conditions: 5 μM PIP2; −50 mV; mean (± SEM)
T2 construct: expressed in transfected cells; host or cells: COSm6
T2 sequence (Q09427 whole entry): as the sequence (Q09427 whole entry K134A) above, with A134K counted along it
T2 sequence (P70673 whole entry R176A): as the sequence (P70673 whole entry) above, with R176A counted along it
Description: as §1, §2

[3] = target: T3, WT (SUR1/Kir6.2) KATP channels (UniProt P70673+Q09427); assay: as above; assay type: biochemical, rat Kir6.2, hamster SUR1; conditions: 5 μM PIP2
T3 construct: expressed in transfected cells; host or cells: COSm6
T3 sequence (P70673 whole entry): as the sequence (P70673 whole entry) above
T3 sequence (Q09427 whole entry): as the sequence (Q09427 whole entry K134A) above, with A134K counted along it
Description: as §1, §2

[4] = target: T4, SUR1^K134A/Kir6.2^R176A double mutant channel (UniProt P70673+Q09427, K134A/R176A); assay: as above; assay type: biochemical, rat Kir6.2, hamster SUR1; conditions: 5 μM PIP2; −50 mV; mean (± SEM)
T4 construct: expressed in transfected cells; host or cells: COSm6
T4 sequence (Q09427 whole entry K134A): as the sequence (Q09427 whole entry K134A) above
T4 sequence (P70673 whole entry R176A): as the sequence (P70673 whole entry) above, with R176A counted along it
Description: as §1, §2

[5] = target: the molecule itself; assay: cryo-EM structure; SUR1/Kir6.2^Q52R channel co-expressed in COSm6 cells; membranes enriched with brain PIP2 (1 mg/mL) before solubilisation in digitonin; purified via the N-terminal FLAG tag on SUR1; 0.2 M NaCl, 0.1 M KCl, 0.05 M HEPES pH 7.5, 0.05% digitonin; no ATP or ADP added; graphene oxide-coated grids

## CCCCCCCC(=O)OC[C@H](COP(=O)(O)O[C@@H]1[C@H](O)[C@H](O)[C@@H](OP(=O)(O)O)[C@H](OP(=O)(O)O)[C@H]1O)OC(=O)CCCCCCC [diC8-PIP2, diC8-PI(4,5)P2]
KATP channels; synthetic short-chain PIP2
  reversibility of channel activation: readily reversible

## ATP-sensitive inward rectifier potassium channel Kir6.2 (pore subunit of the KATP channel) (not stated for the quoted measurement (this article's own constructs are rat Kir6.2, Rattus norvegicus, with hamster SUR1))
His175
  pKa: 7.16

## PI(3,4)P2
KATP channels
  activation of KATP channels: activated equally well

## PI(3,4,5)P3
KATP channels
  activation of KATP channels: activated equally well

## PI(4)P
KATP channels
  activation of KATP channels: activated

## PI(4,5)P2 [PIP2]
KATP channels
  activation of KATP channels: activated equally well
[1]
  maximum fold-increase in currents after PIP2 exposure: 3.96 ± 0.47 fold and 3.96 fold
  time of exposure in PIP2 for currents to reach maximum: 193.83 ± 33.66 s and 193.83 s
[2]
  maximum fold-increase in currents after PIP2 exposure: 48.74 ± 18.25 fold and 48.74 fold
  time of exposure in PIP2 for currents to reach maximum: 298.57 ± 73.76 s and 298.57 s
[3]
  PIP2 exposure until currents plateaued: ≤ 1 min
[3]; −50 mV, mean (± SEM)
  maximum fold-increase in currents after PIP2 exposure: 1.45 fold
  time of exposure in PIP2 for currents to reach maximum: 33.17 ± 3.18 s and 33.17 s
[4]
  maximum fold-increase in currents after PIP2 exposure: 299.65 ± 121.72 fold and 299.65 fold
  time of exposure in PIP2 for currents to reach maximum: 419.33 ± 57.86 s and 419.33 s

B1: rat Kir6.2^Q52R (natural protein)
chain: MLSRKGIIPEEYVLTRLAEDPTEPRYRTRERRARFVSKKGNCNVAHKNIRERGRFLQDVFTTLVDLKWPHTLLIFTMSFLCSWLLFAMVWWLIAFAHGDLAPGEGTNVPCVTSIHSFSSAFLFSIEVQVTIGFGGRMVTEECPLAILILIVQNIVGLMINAIMLGCIFMKTAQAHRRAETLIFSKHAVITLRHGRLCFMLRVGDLRKSMIISATIHMQVVRKTTSPEGEVVPLHQVDIPMENGVGGNSIFLVAPLIIYHVIDSNSPLYDLAPSDLHHHQDLEIIVILEGVVETTGITTQARTSYLADEILWGQRFVPIVAEEDGRYSVDYSKFGNTVKVPTPLCTARQLDEDRSLLDALTLASSRGPLRKRSVAVAKAKPKFSISPDSLS
notes: Kir6.2, rat, with the neonatal diabetes mutation Q52R; the models hold residues 32-352 (N-terminal 31 residues and the tail beyond 352 not resolved); Four Kir6.2 subunits form the pore of the channel with four SUR1 subunits; the gene was cloned into pShuttle/AdEasy; PDB 6BAA (WT channel) was the starting model; also called Kir6.2 (pore-forming subunit of the SUR1/Kir6.2^Q52R KATP channel); …
[5]
  stoichiometry N: 4
